Results: ChEMBL document CHEMBL5465560, “Selectivity Literature for EUbOPEN Chemogenomic Library” (2024)

Legend:
[1] = molecular target: Serine/threonine-protein kinase PLK3 (Homo sapiens, UniProt Q9H4B4); test: Selectivity interaction (Kinase panel (Z-LYTE Assay)) EUB0001632a PLK3; conditions: at 10 µM
[2] = molecular target: T1, Serine/threonine-protein kinase STK11 (Homo sapiens) (UniProt Q15831); conditions: at 10 µM
T1 sequence (whole entry): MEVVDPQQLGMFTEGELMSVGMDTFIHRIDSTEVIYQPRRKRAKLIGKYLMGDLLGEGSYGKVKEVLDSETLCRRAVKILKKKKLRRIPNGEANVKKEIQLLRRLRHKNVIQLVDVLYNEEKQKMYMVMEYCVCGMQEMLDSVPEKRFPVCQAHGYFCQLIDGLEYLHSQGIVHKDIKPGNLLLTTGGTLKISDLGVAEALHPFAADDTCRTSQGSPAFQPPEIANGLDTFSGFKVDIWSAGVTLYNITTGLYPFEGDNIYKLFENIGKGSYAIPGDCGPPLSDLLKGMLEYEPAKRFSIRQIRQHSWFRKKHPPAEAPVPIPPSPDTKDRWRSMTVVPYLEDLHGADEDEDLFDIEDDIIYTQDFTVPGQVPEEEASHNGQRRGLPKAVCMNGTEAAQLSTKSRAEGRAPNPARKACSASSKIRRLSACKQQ

[3] = molecular target: Tyrosine-protein kinase FRK (Homo sapiens) (UniProt P42685); test: Selectivity interaction (Kinase panel (Invitrogen)) EUB0000639a FRK; conditions: at 200 nM
[4] = molecular target: Serine/threonine-protein kinase 26 (Homo sapiens, UniProt Q9P289); test: Selectivity interaction (KinomeScan (DiscoverX)) EUB0000695a STK26; conditions: at 100 nM
[5] = molecular target: Macrophage colony-stimulating factor 1 receptor (Homo sapiens) (UniProt P07333); test: Selectivity interaction (Ambit KINOMEscan and KiNATiv profiling in Jurkat cells) EUB0000090b CSF1R; type: cell-based; conditions: at 1 µM
[6] = molecular target: Mitogen-activated protein kinase kinase kinase kinase 1 (Homo sapiens) (UniProt Q92918); test: Selectivity interaction (KinomeScan (DiscoverX)) EUB0000045b MAP4K1
[7] = molecular target: T2, Serine/threonine-protein kinase LATS1 (Homo sapiens) (UniProt O95835); test: Selectivity interaction (KinomeScan (DiscoverX)) EUB0000045b LATS1
T2 sequence (whole entry): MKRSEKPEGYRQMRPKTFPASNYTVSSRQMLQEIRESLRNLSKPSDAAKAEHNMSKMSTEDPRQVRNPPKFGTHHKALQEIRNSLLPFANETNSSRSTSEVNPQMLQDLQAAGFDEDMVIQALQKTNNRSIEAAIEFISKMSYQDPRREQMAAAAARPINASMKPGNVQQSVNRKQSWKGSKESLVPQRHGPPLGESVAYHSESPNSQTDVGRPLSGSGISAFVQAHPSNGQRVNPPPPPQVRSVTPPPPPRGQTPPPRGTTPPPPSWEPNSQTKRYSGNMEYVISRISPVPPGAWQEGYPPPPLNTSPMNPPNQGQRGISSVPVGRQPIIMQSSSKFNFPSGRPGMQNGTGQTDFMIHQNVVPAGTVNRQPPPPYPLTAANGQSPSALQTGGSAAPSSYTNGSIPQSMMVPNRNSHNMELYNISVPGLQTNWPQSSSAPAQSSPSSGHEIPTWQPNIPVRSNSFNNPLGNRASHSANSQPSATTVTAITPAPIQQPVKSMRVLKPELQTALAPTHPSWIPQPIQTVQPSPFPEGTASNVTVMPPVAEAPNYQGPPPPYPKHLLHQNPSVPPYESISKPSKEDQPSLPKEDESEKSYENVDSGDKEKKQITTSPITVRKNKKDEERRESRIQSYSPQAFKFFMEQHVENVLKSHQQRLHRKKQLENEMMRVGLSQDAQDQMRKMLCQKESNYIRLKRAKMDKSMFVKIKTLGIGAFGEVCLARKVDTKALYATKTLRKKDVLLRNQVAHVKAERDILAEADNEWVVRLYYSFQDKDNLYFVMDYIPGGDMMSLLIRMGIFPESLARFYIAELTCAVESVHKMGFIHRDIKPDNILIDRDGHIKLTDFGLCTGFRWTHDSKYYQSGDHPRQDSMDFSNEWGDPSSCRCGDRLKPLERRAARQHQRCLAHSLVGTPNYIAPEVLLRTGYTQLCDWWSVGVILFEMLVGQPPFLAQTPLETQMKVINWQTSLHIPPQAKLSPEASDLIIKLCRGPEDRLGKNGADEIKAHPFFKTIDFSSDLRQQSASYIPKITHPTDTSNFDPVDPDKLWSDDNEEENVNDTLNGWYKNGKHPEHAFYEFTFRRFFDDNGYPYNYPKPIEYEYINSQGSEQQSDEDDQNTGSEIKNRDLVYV

[8] = molecular target: Microtubule-associated serine/threonine-protein kinase 1 (Homo sapiens) (UniProt Q9Y2H9); test: Selectivity interaction (KinomeScan (DiscoverX)) EUB0000045b MAST1
[9] = system: Mast/stem cell growth factor receptor Kit (Homo sapiens), P10721 [D816V]; test: (§1) Selectivity interaction (KinomeScan (DiscoverX)) EUB0000229b KIT; conditions: at 1 µM
[10] = system: Mast/stem cell growth factor receptor Kit (Homo sapiens), P10721 [A829P]; test: as §1; conditions: at 1 µM
[11] = system: Mast/stem cell growth factor receptor Kit (Homo sapiens), P10721 [V559D,T670I]; test: as §1; conditions: at 1 µM
[12] = molecular target: Mast/stem cell growth factor receptor Kit (Homo sapiens, UniProt P10721); test: as §1; conditions: at 10 µM
[13] = system: Mast/stem cell growth factor receptor Kit (Homo sapiens), P10721 [V559D,V654A]; test: as §1; conditions: at 1 µM
[14] = system: Mast/stem cell growth factor receptor Kit (Homo sapiens), P10721 [L576P]; test: as §1; conditions: at 1 µM
[15] = system: Mast/stem cell growth factor receptor Kit (Homo sapiens), P10721 [D816H]; test: as §1; conditions: at 1 µM
[16] = system: Mast/stem cell growth factor receptor Kit (Homo sapiens), P10721 [V559D]; test: as §1; conditions: at 1 µM
[17] = molecular target: Wee1-like protein kinase (Homo sapiens) (UniProt P30291); test: Selectivity interaction (KinomeScan (DiscoverX)) EUB0000229b WEE1; conditions: at 10 µM
[18] = molecular target: Casein kinase I isoform gamma-2 (Homo sapiens) (UniProt P78368); test: Selectivity interaction (KinomeScan (DiscoverX)) EUB0000618a CSNK1G2; conditions: at 10 µM
[19] = molecular target: Cyclin-dependent kinase 1 (Homo sapiens) (UniProt P06493); test: Selectivity interaction (ActivX KiNativ screen (ex vivo kinase selectivity in human PBMCs)) EUB0001619a CDK1; type: cell-based; conditions: PBMC, at 1 µM
Sequence of Cyclin-dependent kinase 1 (Homo sapiens) (P06493 whole entry, looked up): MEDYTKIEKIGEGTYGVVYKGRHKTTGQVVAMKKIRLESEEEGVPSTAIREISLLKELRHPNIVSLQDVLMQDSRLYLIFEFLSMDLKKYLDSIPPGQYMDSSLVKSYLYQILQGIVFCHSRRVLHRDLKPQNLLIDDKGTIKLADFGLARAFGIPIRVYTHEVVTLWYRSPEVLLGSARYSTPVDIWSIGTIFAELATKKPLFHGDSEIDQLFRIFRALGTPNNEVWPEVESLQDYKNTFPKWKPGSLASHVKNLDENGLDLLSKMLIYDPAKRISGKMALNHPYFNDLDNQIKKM

Sequence of Mitogen-activated protein kinase kinase kinase kinase 1 (Homo sapiens) (Q92918 whole entry, looked up): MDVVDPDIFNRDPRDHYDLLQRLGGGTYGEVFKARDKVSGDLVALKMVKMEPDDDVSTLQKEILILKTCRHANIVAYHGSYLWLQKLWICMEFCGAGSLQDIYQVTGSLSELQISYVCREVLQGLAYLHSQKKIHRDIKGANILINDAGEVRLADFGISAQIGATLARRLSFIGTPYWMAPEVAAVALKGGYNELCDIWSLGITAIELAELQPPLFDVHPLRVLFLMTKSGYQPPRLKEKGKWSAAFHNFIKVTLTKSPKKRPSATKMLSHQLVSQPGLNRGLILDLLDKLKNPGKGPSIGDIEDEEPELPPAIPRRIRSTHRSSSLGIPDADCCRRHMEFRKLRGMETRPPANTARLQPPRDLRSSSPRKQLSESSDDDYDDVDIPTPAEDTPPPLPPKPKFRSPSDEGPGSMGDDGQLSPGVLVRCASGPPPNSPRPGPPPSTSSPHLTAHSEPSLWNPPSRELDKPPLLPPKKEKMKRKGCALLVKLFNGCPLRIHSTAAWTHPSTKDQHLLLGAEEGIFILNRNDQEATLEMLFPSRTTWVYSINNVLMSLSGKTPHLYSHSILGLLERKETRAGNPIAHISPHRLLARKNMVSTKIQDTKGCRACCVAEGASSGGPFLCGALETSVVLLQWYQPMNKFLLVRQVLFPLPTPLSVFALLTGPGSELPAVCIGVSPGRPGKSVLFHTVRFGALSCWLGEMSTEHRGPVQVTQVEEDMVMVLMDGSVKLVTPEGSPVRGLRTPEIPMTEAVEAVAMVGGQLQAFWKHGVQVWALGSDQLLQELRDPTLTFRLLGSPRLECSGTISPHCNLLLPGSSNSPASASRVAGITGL
Sequence of Microtubule-associated serine/threonine-protein kinase 1 (Homo sapiens) (Q9Y2H9 whole entry, looked up): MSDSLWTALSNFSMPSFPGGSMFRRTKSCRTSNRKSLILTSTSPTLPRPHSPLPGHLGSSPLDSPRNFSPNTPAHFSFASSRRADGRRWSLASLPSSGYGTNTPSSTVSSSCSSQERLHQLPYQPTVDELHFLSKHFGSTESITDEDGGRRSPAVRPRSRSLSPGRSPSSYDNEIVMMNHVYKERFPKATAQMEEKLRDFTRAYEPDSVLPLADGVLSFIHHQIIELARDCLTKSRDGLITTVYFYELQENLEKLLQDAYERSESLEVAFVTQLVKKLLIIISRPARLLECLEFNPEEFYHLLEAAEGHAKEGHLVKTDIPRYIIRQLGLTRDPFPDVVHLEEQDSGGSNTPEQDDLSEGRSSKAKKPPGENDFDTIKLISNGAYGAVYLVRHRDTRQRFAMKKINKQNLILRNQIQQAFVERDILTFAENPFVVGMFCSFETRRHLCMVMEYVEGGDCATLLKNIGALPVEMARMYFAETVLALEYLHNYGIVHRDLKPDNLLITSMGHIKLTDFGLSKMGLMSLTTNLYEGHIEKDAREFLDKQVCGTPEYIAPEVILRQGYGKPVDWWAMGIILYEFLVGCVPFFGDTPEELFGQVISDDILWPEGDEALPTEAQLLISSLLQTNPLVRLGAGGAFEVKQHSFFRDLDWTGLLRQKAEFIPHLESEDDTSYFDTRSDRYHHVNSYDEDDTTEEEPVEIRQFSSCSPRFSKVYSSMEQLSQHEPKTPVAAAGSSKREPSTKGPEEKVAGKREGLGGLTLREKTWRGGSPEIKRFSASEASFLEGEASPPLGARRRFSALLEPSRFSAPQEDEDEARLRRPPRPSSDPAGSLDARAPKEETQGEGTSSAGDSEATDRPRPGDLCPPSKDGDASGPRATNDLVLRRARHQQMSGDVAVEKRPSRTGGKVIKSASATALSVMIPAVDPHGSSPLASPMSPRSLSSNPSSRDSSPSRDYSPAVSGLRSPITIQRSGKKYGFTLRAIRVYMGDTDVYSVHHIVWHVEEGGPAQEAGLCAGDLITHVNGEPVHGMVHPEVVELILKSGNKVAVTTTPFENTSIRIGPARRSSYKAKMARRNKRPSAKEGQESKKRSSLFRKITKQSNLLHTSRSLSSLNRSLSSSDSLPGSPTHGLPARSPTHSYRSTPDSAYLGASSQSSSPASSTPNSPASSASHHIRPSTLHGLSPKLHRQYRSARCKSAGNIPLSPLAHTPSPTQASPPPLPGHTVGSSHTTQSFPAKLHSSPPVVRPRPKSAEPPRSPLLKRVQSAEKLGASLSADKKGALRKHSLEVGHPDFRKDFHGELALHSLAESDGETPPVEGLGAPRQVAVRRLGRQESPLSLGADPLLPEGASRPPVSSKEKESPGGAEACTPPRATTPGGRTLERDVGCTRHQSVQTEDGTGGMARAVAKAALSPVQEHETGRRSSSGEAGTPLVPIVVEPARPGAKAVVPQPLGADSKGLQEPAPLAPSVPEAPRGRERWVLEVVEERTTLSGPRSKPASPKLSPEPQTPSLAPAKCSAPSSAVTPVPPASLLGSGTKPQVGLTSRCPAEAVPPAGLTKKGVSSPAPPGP
Sequence of Casein kinase I isoform gamma-2 (Homo sapiens) (P78368 whole entry, looked up, canonical isoform): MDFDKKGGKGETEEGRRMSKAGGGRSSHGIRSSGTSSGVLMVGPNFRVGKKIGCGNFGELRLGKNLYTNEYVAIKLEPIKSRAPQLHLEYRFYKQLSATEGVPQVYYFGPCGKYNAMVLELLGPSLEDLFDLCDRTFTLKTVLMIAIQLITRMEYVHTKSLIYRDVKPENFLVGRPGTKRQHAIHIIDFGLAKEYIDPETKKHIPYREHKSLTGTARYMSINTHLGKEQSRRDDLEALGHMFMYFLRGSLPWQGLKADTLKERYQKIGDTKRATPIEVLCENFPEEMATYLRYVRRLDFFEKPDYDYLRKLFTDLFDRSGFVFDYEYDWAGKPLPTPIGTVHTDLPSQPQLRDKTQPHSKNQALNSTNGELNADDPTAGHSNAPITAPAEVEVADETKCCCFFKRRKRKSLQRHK
Sequence of Mast/stem cell growth factor receptor Kit (Homo sapiens), P10721 [L576P] (P10721 whole entry L576P): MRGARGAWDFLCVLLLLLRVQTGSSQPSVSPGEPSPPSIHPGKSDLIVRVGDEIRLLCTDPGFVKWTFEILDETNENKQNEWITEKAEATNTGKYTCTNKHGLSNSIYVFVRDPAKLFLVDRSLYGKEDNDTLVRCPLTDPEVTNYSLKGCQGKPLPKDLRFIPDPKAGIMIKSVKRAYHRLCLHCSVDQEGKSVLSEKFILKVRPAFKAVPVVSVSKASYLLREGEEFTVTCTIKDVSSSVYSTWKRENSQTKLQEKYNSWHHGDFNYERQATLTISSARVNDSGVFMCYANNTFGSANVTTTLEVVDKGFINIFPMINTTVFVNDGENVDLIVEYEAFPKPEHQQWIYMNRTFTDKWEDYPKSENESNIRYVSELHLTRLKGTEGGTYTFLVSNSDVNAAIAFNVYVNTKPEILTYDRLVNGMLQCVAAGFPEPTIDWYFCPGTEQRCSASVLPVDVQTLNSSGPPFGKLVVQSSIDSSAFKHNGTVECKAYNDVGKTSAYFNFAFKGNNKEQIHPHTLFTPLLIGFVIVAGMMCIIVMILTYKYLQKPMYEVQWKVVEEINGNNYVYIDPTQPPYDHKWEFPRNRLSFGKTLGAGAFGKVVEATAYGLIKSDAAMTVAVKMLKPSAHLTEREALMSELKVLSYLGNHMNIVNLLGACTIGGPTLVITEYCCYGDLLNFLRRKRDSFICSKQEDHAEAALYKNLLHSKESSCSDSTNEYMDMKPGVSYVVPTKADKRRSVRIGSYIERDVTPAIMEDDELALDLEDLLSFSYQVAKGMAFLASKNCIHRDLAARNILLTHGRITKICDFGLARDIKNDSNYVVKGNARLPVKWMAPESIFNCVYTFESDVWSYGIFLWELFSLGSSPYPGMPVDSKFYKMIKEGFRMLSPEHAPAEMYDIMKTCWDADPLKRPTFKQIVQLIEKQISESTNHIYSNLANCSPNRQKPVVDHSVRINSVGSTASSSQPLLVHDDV
Sequence of Mast/stem cell growth factor receptor Kit (Homo sapiens), P10721 [A829P] (P10721 whole entry A829P): as the sequence (P10721 whole entry L576P) above, with P576L, A829P counted along it

Cn1cc(-n2cnc3c(NCc4nc5cc(Cl)c(Cl)cc5[nH]4)nc(N4CCOCC4)nc32)cn1
% of control [1]: 0.242%

CCN(CC)CCCCNc1ncc2cc(-c3cc(OC)cc(OC)c3)c(NC(=O)NC(C)(C)C)nc2n1
% of control [2]: 100%

CC[C@@H]1[C@H](F)C(=O)N[C@@H]1COc1nccc2cc(C(N)=O)c(OC)cc12 [ZIMLOVISERTIB]
% of inhibition [3]: 6.43%

Cc1cc(F)c(C(=O)Nc2cccc(-c3nncn3C(C)C)n2)cc1-n1cnc(C2CC2)c1
% of control [4]: 100%

CN(C)C/C=C/C(=O)Nc1ccc(C(=O)N2CCCC(Nc3ncc(Cl)c(-c4c[nH]c5ccccc45)n3)C2)cc1 (configuration not stated)
% of control [5]: 90%

C=CC(=O)Nc1cc(-n2c(=O)ccc3cnc4ccc(-c5ccc(NS(C)(=O)=O)cc5)cc4c32)ccc1C
% of control ([6]; at 1 µM): 100%
% of control ([6]; at 10 µM): 94%
% of control ([7]; at 1 µM): 100%
% of control ([7]; at 10 µM): 100%
% of control ([8]; at 1 µM): 100%
% of control ([8]; at 10 µM): 94%

COc1cc(N(C)c2ccnc3ccc(C(F)(F)F)cc23)cc(OC)c1OC
% binding [9]: 95%
% binding [10]: 72%
% binding [11]: 94%
% binding [12]: 84%
% binding [13]: 100%
% binding [14]: 100%
% binding [15]: 79%
% binding [16]: 95%
% binding [17]: 91%

O[C@H]1CC[C@H](Nc2ncc3nc(Nc4c(F)cc(F)cc4F)n([C@H]4CCOC4)c3n2)CC1
% of control [18]: 100%

N#Cc1cccc(-c2c[nH]c3ncnc(N4CCOCC4)c23)c1
% of inhibition [19]: 13%
